According to patent US20230339937A1, “CONDENSED RING COMPOUNDS THAT INHIBIT H-PGDS” (SATO PHARMACEUTICAL CO., LTD., priority 2020, published 2023):
Where a name gives a salt, the structure may show the parent alone.

Molecular target: T1, Recombinant human H-PGDS (Homo sapiens, UniProt O60760)
T1 construct: made in house; host or cells: E. coli
Test: H-PGDS inhibitory activity (prostaglandin D2 production from prostaglandin H2, measured by LC-MS/MS)
Type: biochemical
Conditions: recombinant human H-PGDS 1.0 nM expressed in E. coli; prostaglandin H2 25 μM; preincubated 15 minutes on ice, reacted on ice for 1 minute; concentration that inhibits prostaglandin D2 production by 50%
Summary of the method: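 PGD2 formed from 25 µM prostaglandin H2 during a 1-min on-ice reaction was measured by LC-MS/MS after an FeCl2/citric acid stop. The enzyme was 1.0 nM E. coli-expressed human H-PGDS in Tris-HCl pH 8.0 buffer with MgCl2, reduced glutathione and γ-globulin, preincubated with compound for 15 min on ice. Production was normalised to DMSO controls minus the no-enzyme background.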

T1 sequence (O60760 whole entry): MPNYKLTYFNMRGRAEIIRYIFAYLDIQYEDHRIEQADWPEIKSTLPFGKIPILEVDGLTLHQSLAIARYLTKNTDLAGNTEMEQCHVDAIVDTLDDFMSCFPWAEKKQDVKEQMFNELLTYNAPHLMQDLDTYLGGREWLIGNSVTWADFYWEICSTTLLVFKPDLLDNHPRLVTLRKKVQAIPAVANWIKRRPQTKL

SMILES	IC50 [nM]
O=C(NCc1ccccc1CO)c1ccc(-c2nccc3occc23)cc1 [Example 65, 4-(furo[3,2-c]pyridin-4-yl)-N-[2-(hydroxymethyl)benzyl]benzamide]	9
CS(=O)(=O)c1ccc(NC(=O)c2ccc(-c3nccc4occc34)cc2)cc1 [Example 109, 4-(furo[3,2-c]pyridin-4-yl)-N-[4-(methylsulfonyl)phenyl]benzamide]	2.9
O=C(NCc1ccccn1)c1ccc(-c2nccc3occc23)cc1 [Example 93, 4-(furo[3,2-c]pyridin-4-yl)-N-(pyridin-2-ylmethyl) benzamide]	32
O=C(NCC1CCCC1)c1ccc(-c2nccc3occc23)cc1 [Example 84, N-(cyclopenthyl-methyl)-4-(furo[3,2-c]pyridin-4-yl)benzamide]	14
O=C(NCC1CCOCC1)c1ccc(-c2nccc3occc23)cc1 [Example 82, 4-(furo[3,2-c]pyridin-4-yl)-N-[(tetrahydro-2H-pyran-4-yl)methyl] benzamide]	11
Cc1c(CNC(=O)c2ccc(-c3nccc4[nH]ccc34)cc2)cnn1C [Example 42, N-[(1,5-dimethyl-1H-pyrazol-4-yl)methyl]-4-(1H-pyrrolo[3,2-c]pyridin-4-yl)benzamide]	0.74
CC(C)(O)[C@H]1CC[C@H](NC(=O)c2ccc(-c3nccc4[nH]ccc34)cc2)CC1 [Example 2, N-[trans-4-(2-hydroxypropan-2-yl)cyclohexyl]-4-(1H-pyrrolo[3,2-c]pyridin-4-yl)benzamide]	0.75
O=C(NCc1ccncc1)c1ccc(-c2nccc3[nH]ccc23)cc1 [Example 11, N-(pyridin-4-ylmethyl)-4-(1H-pyrrolo[3,2-c]pyridin-4-yl)benzamide]	1.7
O=C(NC1CCCC1)c1ccc(-c2nccc3[nH]ccc23)cc1 [Example 12, N-cyclopenthyl-4-(1H-pyrrolo[3,2-c]pyridin-4-yl)benzamide]	1.1
Cn1cncc1CNC(=O)c1ccc(-c2nccc3[nH]ccc23)cc1 [Example 41, N-[(1-methyl-1H-imidazol-5-yl)methyl]-4-(1H-pyrrolo[3,2-c]pyridin-4-yl)benzamide]	0.63
O=C(NCC1CCOCC1)c1ccc(-c2nccc3[nH]ccc23)cc1 [Example 22, 4-(1H-pyrrolo[3,2-c]pyridin-4-yl)-N-[(tetrahydro-2H-pyran-4-yl)methyl] benzamide]	0.85
CC(C)(O)CNC(=O)c1ccc(-c2nccc3occc23)cc1 [Example 92, 4-(furo[3,2-c]pyridin-4-yl)-N-(2-hydroxy-2-methylpropyl) benzamide]	22
NS(=O)(=O)c1ccc(CCNC(=O)c2ccc(-c3nccc4[nH]ccc34)cc2)cc1 [Example 47, 4-(1H-pyrrolo[3,2-c]pyridin-4-yl)-N-(4-sulfamoylphenethyl) benzamide]	1.1
CC(C)N(CCNC(=O)c1ccc(-c2nccc3sccc23)cc1)C(C)C [Example 62, N-[2-(diisopropylamino)ethyl]-4-(thieno[3,2-c]pyridin-4-yl)benzamide dihydrochloride]	86
O=C(NCc1ccccc1)c1ccc(-c2nccc3sccc23)cc1 [Example 59, N-benzyl-4-(thieno[3,2-c]pyridin-4-yl)benzamide]	9.6
O=C(NC1CCCCC1)c1ccc(-c2nccc3occc23)cc1 [Example 88, N-cyclohexyl-4-(furo[3,2-c]pyridin-4-yl)benzamide]	4.2
O=C(Nc1ccccc1)c1ccc(-c2nccc3occc23)cc1 [Example 89, 4-(furo[3,2-c]pyridin-4-yl)-N-phenylbenzamide]	3.7

The next lines start with the values.

IC50 [nM]	SMILES
21	O=C(NC[C@H]1C[C@H](O)C1)c1ccc(-c2nccc3occc23)cc1 [Example 218, 4-(furo[3,2-c]pyridin-4-yl)-N-[(trans-3-hydroxycyclobutyl)methyl]benzamide]
1.7	Cc1cc2occc2c(-c2ccc(C(=O)NC3CCN(c4nnnn4C)CC3)cc2)n1 [Example 330, N-[1-(1-methyl-1H-tetrazol-5-yl)piperidin-4-yl]-4-(6-methylfuro[3,2-c]pyridin-4-yl)benzamide]
12	CC1(NC(=O)c2ccc(-c3nccc4occc34)cc2)CCC(O)CC1 (centres unmarked) [Example 276, 4-(furo[3,2-c]pyridin-4-yl)-N-(4-hydroxy-1-methylcyclohexyl)benzamide]
6.8	Cc1coc2ccnc(-c3ccc(C(=O)N[C@H]4CC[C@H](C(C)(C)O)CC4)cc3)c12 [Example 130, N-[trans-4-(2-hydroxypropan-2-yl)cyclohexyl]-4-(3-methylfuro[3,2-c]pyridin-4-yl)benzamide]
1.7	C[C@]1(O)CC[C@@H](NC(=O)c2ccc(-c3nccc4occc34)cc2)CC1 [Example 283, 4-(furo[3,2-c]pyridin-4-yl)-N-(cis-4-hydroxy-4-methylcyclohexyl)benzamide]
0.97	O=C(NC1CCN(c2nccc(=O)[nH]2)CC1)c1ccc(-c2nccc3occc23)cc1 [Example 179, 4-(furo[3,2-c]pyridin-4-yl)-N-[1-(6-oxo-1,6-dihydropyrimidin-2-yl)piperidin-4-yl]benzamide]
0.94	O=C(N[C@H]1CCN(c2ncc(F)cn2)C1)c1ccc(-c2nccc3occc23)cc1 [Example 194, (S)-N-[1-(5-fluoropyrimidin-2-yl)pyrrolidin-3-yl]-4-(furo[3,2-c]pyridin-4-yl)benzamide]
1.1	O=C(NC1CCN(C2COC2)CC1)c1ccc(-c2nccc3occc23)cc1 [Example 236, 4-(furo[3,2-c]pyridin-4-yl)-N-[1-(oxetan-3-yl)piperidin-4-yl]benzamide]
1.6	CC(C)(O)[C@H]1CC[C@H](NC(=O)c2ccc(-c3nc(CO)cc4occc34)cc2)CC1 [Example 319, 4-[6-(hydroxymethyl)furo[3,2-c]pyridin-4-yl]-N-[trans-4-(2-hydroxypropan-2-yl)cyclohexyl]benzamide]
0.69	CCOC(=O)c1cnc(N2CCC(NC(=O)c3ccc(-c4nccc5occc45)cc3)CC2)nc1 [Example 158, Ethyl 2-{4-[4-(furo[3,2-c]pyridin-4-yl)benzamide]piperidin-1-yl}pyrimidine-5-carboxylate]
3	O=C(NC1CCN(c2ncc(F)cn2)CC1)c1ccc(-c2nccc3occc23)cc1 [Example 157, N-[1-(5-fluoropyrimidin-2-yl)piperidin-4-yl]-4-(furo[3,2-c]pyridin-4-yl)benzamide]
12	O=C(NC[C@H]1C[C@@H](O)C1)c1ccc(-c2nccc3occc23)cc1 [Example 219, 4-(furo[3,2-c]pyridin-4-yl)-N-[(cis-3-hydroxycyclobutyl)methyl]benzamide]
2	Cn1ccnc1N1CCC(NC(=O)c2ccc(-c3nccc4occc34)cc2)CC1 [Example 251, 4-(furo[3,2-c]pyridin-4-yl)-N-[1-(1-methyl-1H-imidazol-2-yl)piperidin-4-yl]benzamide]
1.3	O=C(NC1CCN(C(=O)C2CC2)CC1)c1ccc(-c2nccc3occc23)c(F)c1 [Example 324, N-[1-(cyclopropanecarbonyl)piperidin-4-yl]-3-fluoro-4-(furo[3,2-c]pyridin-4-yl)benzamide]
1.3	NC(=O)c1ccnc(N2CCC(NC(=O)c3ccc(-c4nccc5occc45)cc3)CC2)n1 [Example 175, 2-{4-[4-(furo[3,2-c]pyridin-4-yl)benzamide]piperidin-1-yl}pyrimidine-4-carboxamide]
27	CC(C)(O)[C@]1(O)CC[C@@H](NC(=O)c2ccc(-c3nccc4occc34)cc2)CC1 [Example 350, 4-(furo[3,2-c]pyridin-4-yl)-N-[cis-4-hydroxy-4-(2-hydroxypropan-2-yl)cyclohexyl]benzamide]
2	O=C(NC1CCN(c2nnnn2C2CC2)CC1)c1ccc(-c2nccc3occc23)cc1 [Example 243, N-[1-(1-cyclopropyl-1H-tetrazol-5-yl)piperidin-4-yl]-4-(furo[3,2-c]pyridin-4-yl)benzamide]
1.3	O=C(N[C@H]1CC[C@H](NCC(F)(F)F)CC1)c1ccc(-c2nccc3occc23)cc1 [Example 119, 4-(furo[3,2-c]pyridin-4-yl)-N-{trans-4-[(2,2,2-trifluoroethyl)amino]cyclohexyl}benzamide]
1.4	O=C(N[C@H]1CCN(c2cc(Cl)ncn2)C1)c1ccc(-c2nccc3occc23)cc1 [Example 227, (S)—N-[1-(6-chloropyrimidin-4-yl)pyrrolidin-3-yl]-4-(furo[3,2-c]pyridin-4-yl)benzamide]
6.7	O=C(N[C@@H]1CN(c2ncc(CO)cn2)C[C@H]1O)c1ccc(-c2nccc3occc23)cc1 [Example 207, 4-(furo[3,2-c]pyridin-4-yl)-N-((3R,4R)-4-hydroxy-1-[5-(hydroxymethyl)pyrimidin-2-yl]pyrrolidin-3-yl)benzamide]
367	CC(C)(O)[C@H]1CC[C@H](NC(=O)c2ccc(-c3nc(C(N)=O)cc4occc34)cc2)CC1 [Example 318, 4-(4-{[trans-4-(2-hydroxypropan-2-yl)cyclohexyl]carbamoyl}phenyl)furo[3,2-c]pyridine-6-carboxamide]
1.7	CC(C)(O)CO[C@H]1CC[C@@H](NC(=O)c2ccc(-c3nccc4occc34)cc2)CC1 [Example 348, 4-(furo[3,2-c]pyridin-4-yl)-N-[cis-4-(2-hydroxy-2-methylpropoxy)cyclohexyl]benzamide]
3.4	CC(C)(O)[C@@H]1CC[C@@H](NC(=O)c2ccc(-c3nccc4occc34)cc2)CO1 [Example 214, 4-(furo[3,2-c]pyridin-4-yl)-N-[(3R,6S)-6-(2-hydroxypropan-2-yl)tetrahydro-2 H-pyran-3-yl]benzamide]
3.3	O=C(NC12CC(O)(C1)C2)c1ccc(-c2nccc3occc23)cc1 [Example 278, 4-(furo[3,2-c]pyridin-4-yl)-N-(3-hydroxybicyclo[1.1.1]pentan-1-yl)benzamide]
